We go through 5 compounds from DBAASP.

Some test systems named below: Staphylococcus aureus; Enterococcus faecalis; Escherichia coli W3110; Serratia rubidaea X01; Escherichia coli 27A; Escherichia coli 23A; Staphylococcus aureus 6A; Yersinia pestis KIM pYV.
What all share (assay): ≥ marks a high value that may be exact or a test limit, other limits are often not marked, values filed in µg/mL are converted to µM
For assay [1], the system named is Streptococcus sobrinus ATCC 33478.
The subject of assay [2] is Pseudomonas aeruginosa PAK.
For assay [3], the system named is Streptococcus mutans UA159.
Assay [4] deals with Streptococcus sanguinis NY101.
Assay [5] concerns Staphylococcus aureus ATCC 2592.
The subject of assay [6] is Psychrobacter faecalis X29.
For assay [7], the system named is Escherichia coli ATCC 25922.
Assay [8] has as its system Rhodococcus rhodochrous X15.
Assay [9] relates to Pseudomonas aeruginosa 1.50.
Assay [10] concerns Staphylococcus carnosus KHS.
Assay [11] relates to Bacillus licheniformis X39.
Assay [12] relates to Staphylococcus aureus 15A.
The test system of assay [13] is Candida albicans ATCC 2002.
Assay [14] deals with Pseudomonas aeruginosa 3A.
Assay [15] has as its system Pseudomonas aeruginosa 7A.
The test system of assay [16] is Pseudomonas aeruginosa MR3007.
The subject of assay [17] is Staphylococcus aureus ATCC 33591.
Assay [18] has as its system Staphylococcus aureus 930918-3.
Assay [19] concerns Bordetella bronchiseptica CUN 11844-99.
For assay [20], the system named is Brucella abortus 9.49 (per-).
Assay [21] has as its system Staphylococcus aureus SA113.
In assay [22] the test system is Acinetobacter baumannii ATCC 19606.
Assay [23] deals with Staphylococcus aureus ATCC 43300.
In assay [24] the test system is Pseudomonas aeruginosa CUN 4158-02.
For assay [25], the system named is Escherichia coli ATCC 23716.

≈ marks a conversion by molar mass, not a printed value. Where “and” joins values, the source holds several entries; their conditions need not be identical. Equal entries are not always repeated.

As a reminder, the MIC is the lowest concentration found to suppress growth. Low values mean a more susceptible organism, high ones a less susceptible organism.

With `CC[C@H](C)[C@H](NC(=O)[C@H](Cc1ccccc1)NC(=O)[C@H](Cc1cnc[nH]1)NC(=O)[C@H](CCCCN)NC(=O)[C@@H](NC(=O)[C@H](Cc1ccccc1)NC(=O)[C@@H]1CCCN1C(=O)[C@H](Cc1ccc(O)cc1)NC(=O)[C@@H]1CCCN1C(=O)[C@H](Cc1ccccc1)NC(=O)[C@H](Cc1cnc[nH]1)NC(=O)[C@H](CC(C)C)NC(=O)[C@H](Cc1cnc[nH]1)NC(=O)[C@H](Cc1ccccc1)NC(=O)[C@H](Cc1cnc[nH]1)NC(=O)[C@@H](N)Cc1ccccc1)[C@@H](C)CC)C(=O)N[C@@H](Cc1cnc[nH]1)C(=O)N[C@@H](CCCN=C(N)N)C(=O)N[C@@H](Cc1ccccc1)C(N)=O` [FHFHLHFPYPFIKHFIHRF], the MIC in [1] was 24.3 µM (≈ 62.5 µg/mL); with Staphylococcus aureus, over 195 µM; with Enterococcus faecalis, at least 97.4 µM; in assay [2] it was at least 48.7 µM; in assay [3] it was 12.5 µM (≈ 32 µg/mL); in assay [4], 24.3 µM (≈ 62.5 µg/mL). In the assay on Escherichia coli W3110, this compound gave an MIC of at least 48.7 µM.

Consider `CSCC[C@H](NC(=O)CNC(=O)[C@H](C)NC(=O)[C@H](CCC(=O)O)NC(=O)[C@H](CCCCN)NC(=O)[C@H](C)NC(=O)[C@@H](NC(=O)CNC(=O)[C@H](CCCCN)NC(=O)[C@H](CC(C)C)NC(=O)[C@H](CC(C)C)NC(=O)[C@H](CC(=O)O)NC(=O)CNC(=O)[C@H](Cc1ccccc1)NC(=O)[C@H](C)NC(=O)CN)C(C)C)C(=O)N[C@@H](CCCCN)C(=O)N[C@@H](CC(C)C)C(=O)N[C@@H](CC(C)C)C(=O)N[C@@H](CC(N)=O)C(=O)N[C@@H](CCSC)C(=O)N[C@@H](C)C(=O)N[C@@H](CCC(N)=O)C(=O)N[C@H]1CSSC[C@@H](C(=O)O)NC(=O)[C@H](CCCCN)NC(=O)CNC(=O)[C@H](CO)NC(=O)[C@H](CC(C)C)NC(=O)[C@H](CCCCN)NC1=O` [GAFGDLLKGVAKEAGMKLLNMAQCKLSGKC], for which the MIC in assay [5] is 2 µM (≈ 6.16 µg/mL); in [6] it was 0.5 µM (≈ 1.54 µg/mL); in [7] it was 32.5 µM (≈ 100 µg/mL); in assay [8], 0.5 µM (≈ 1.54 µg/mL); in the assay with Serratia rubidaea X01, at least 130 µM; in [9], at least 65 µM. For the same compound, the MIC in assay [10] is 2 µM (≈ 6.16 µg/mL); in assay [11] it was 8 µM (≈ 24.6 µg/mL).

As for `CC[C@H](C)[C@H](N)C(=O)N[C@@H](CC(N)=O)C(=O)N[C@@H](CCSC)C(=O)N[C@@H](CCCCN)C(=O)N[C@@H](C)C(=O)N[C@@H](CO)C(=O)N[C@@H](C)C(=O)N[C@@H](C)C(=O)N[C@H](C(=O)N[C@@H](C)C(=O)N[C@@H](CCCCN)C(=O)N[C@@H](CCCCN)C(=O)N[C@@H](CC(C)C)C(=O)N[C@@H](CC(C)C)C(=O)O)C(C)C` [INMKASAAVAKKLL], the MIC is 2.57 µM (≈ 3.75 µg/mL) in assay [5]; 2.57 µM (≈ 3.75 µg/mL) in assay [12]; 10.3 µM (≈ 15 µg/mL) in assay [13]; 10.3 µM (≈ 15 µg/mL) in [7]; at least 41.2 µM in the assay with Escherichia coli 27A; 10.3 µM (≈ 15 µg/mL) in assay [14]. In addition, the MIC is 10.3 µM (≈ 15 µg/mL) in the assay with Escherichia coli 23A, at least 82.3 µM in assay [15] and 1.3 µM (≈ 1.9 µg/mL) in the assay with Staphylococcus aureus 6A.

For the compound `CC[C@H](C)[C@H](NC(=O)[C@H](CCCCN)NC(=O)[C@H](CCCCN)NC(=O)[C@H](CC(C)C)NC(=O)[C@H](CCCCN)NC(=O)[C@H](CCC(=O)O)NC(=O)[C@H](CCCCN)NC(=O)[C@@H](NC(=O)[C@@H](N)CCCCN)[C@@H](C)CC)C(=O)NCC(=O)N[C@@H](CCC(N)=O)C(=O)N[C@@H](CCCCN)C(=O)N[C@H](C(=O)N[C@@H](CCC(N)=O)C(=O)NCC(=O)O)[C@@H](C)CC` [KIKEKLKKIGQKIQG], the MIC in [16], in [17] and in assay [18] was at least 143 µM throughout.

For the compound `CC[C@H](C)[C@H](NC(=O)[C@H](CCCCN)NC(=O)[C@H](CCCCN)NC(=O)[C@H](CO)NC(=O)[C@@H](NC(=O)CNC(=O)[C@H](CCCN=C(N)N)NC(=O)[C@H](CC(C)C)NC(=O)[C@@H](NC(=O)[C@@H](N)CCCCN)[C@@H](C)CC)C(C)C)C(=O)N[C@@H](CCSC)C(=O)N[C@@H](CCCN=C(N)N)C(=O)N[C@@H](CCCN=C(N)N)C(=O)N[C@H](C(=O)N[C@@H](CO)C(=O)N[C@@H](CCCCN)C(=O)N[C@@H](CC(=O)O)C(=O)N[C@H](C(=O)N[C@@H](CC(C)C)C(=O)N[C@H](C(=O)NCC(=O)N[C@@H](CCCCN)C(=O)N[C@@H](CCCCN)C(N)=O)[C@@H](C)O)[C@@H](C)CC)[C@@H](C)CC` [KILRGVSKKIMRRISKDILTGKK], the MIC is 0.375 µM (≈ 1 µg/mL) in [19]; 24 µM and 48 µM with Staphylococcus aureus; 1.5 µM (≈ 4 µg/mL) in assay [20]; at least 95.9 µM in assay [21]; 3 µM (≈ 8 µg/mL) in assay [22]; 5.99 µM (≈ 16 µg/mL) in assay [7]. The MIC was over 95.9 µM in assay [23]; 5.99 µM (≈ 16 µg/mL) in assay [24]; at least 48 µM in the assay on Yersinia pestis KIM pYV; 5.99 µM and 4.68 µM in assay [25].
